Experiments:
[1] = target: Receptor tyrosine-protein kinase erbB-2 (Homo sapiens, UniProt P04626); test: Inhibition of HER2 by homogeneous time-resolved fluorescence assay
[2] = target: Epidermal growth factor receptor (Homo sapiens, UniProt P00533); test: Inhibition of EGFR by homogeneous time-resolved fluorescence assay
[3] = test system: BT-474; test: Antiproliferative activity against human BT474 cells by methylene blue staining method
[4] = Aqueous solubility of the compound at pH 6.8; assay type: physicochemical
[5] = Lipophilicity log P of the compound; assay type: physicochemical; conditions: octanol/water

Chain of Epidermal growth factor receptor (P00533 whole entry): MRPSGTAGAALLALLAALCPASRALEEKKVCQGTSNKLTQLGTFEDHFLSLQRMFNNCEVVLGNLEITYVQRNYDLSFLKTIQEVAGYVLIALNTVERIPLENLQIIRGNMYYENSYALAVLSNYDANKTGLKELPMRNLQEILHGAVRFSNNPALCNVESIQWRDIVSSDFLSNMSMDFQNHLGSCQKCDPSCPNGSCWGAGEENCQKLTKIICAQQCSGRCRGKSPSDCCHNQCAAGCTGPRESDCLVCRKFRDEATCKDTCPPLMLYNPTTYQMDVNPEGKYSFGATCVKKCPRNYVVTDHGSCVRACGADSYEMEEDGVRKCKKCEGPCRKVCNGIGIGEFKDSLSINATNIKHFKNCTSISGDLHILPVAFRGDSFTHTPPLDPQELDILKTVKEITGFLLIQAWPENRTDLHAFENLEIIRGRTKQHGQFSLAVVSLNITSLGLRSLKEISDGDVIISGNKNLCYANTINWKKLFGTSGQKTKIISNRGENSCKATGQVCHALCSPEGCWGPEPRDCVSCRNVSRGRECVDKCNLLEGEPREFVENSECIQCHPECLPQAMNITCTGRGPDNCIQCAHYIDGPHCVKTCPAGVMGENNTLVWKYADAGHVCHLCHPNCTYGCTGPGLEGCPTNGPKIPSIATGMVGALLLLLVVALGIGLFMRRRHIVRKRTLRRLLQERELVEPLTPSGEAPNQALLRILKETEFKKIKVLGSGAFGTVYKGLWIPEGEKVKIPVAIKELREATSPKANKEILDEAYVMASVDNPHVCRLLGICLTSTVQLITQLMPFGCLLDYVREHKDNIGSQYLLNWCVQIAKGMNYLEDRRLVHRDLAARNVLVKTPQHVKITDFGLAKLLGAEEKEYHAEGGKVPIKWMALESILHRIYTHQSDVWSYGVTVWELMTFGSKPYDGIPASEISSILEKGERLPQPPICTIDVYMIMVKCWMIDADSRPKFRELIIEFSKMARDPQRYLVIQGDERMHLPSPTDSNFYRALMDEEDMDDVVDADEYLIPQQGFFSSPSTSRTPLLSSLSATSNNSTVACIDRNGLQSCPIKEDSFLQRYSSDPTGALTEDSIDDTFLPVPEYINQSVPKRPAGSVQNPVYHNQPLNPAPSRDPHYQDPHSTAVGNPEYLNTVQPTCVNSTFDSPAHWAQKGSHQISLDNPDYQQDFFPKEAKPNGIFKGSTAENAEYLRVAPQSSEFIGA
Chain of Receptor tyrosine-protein kinase erbB-2 (P04626 whole entry): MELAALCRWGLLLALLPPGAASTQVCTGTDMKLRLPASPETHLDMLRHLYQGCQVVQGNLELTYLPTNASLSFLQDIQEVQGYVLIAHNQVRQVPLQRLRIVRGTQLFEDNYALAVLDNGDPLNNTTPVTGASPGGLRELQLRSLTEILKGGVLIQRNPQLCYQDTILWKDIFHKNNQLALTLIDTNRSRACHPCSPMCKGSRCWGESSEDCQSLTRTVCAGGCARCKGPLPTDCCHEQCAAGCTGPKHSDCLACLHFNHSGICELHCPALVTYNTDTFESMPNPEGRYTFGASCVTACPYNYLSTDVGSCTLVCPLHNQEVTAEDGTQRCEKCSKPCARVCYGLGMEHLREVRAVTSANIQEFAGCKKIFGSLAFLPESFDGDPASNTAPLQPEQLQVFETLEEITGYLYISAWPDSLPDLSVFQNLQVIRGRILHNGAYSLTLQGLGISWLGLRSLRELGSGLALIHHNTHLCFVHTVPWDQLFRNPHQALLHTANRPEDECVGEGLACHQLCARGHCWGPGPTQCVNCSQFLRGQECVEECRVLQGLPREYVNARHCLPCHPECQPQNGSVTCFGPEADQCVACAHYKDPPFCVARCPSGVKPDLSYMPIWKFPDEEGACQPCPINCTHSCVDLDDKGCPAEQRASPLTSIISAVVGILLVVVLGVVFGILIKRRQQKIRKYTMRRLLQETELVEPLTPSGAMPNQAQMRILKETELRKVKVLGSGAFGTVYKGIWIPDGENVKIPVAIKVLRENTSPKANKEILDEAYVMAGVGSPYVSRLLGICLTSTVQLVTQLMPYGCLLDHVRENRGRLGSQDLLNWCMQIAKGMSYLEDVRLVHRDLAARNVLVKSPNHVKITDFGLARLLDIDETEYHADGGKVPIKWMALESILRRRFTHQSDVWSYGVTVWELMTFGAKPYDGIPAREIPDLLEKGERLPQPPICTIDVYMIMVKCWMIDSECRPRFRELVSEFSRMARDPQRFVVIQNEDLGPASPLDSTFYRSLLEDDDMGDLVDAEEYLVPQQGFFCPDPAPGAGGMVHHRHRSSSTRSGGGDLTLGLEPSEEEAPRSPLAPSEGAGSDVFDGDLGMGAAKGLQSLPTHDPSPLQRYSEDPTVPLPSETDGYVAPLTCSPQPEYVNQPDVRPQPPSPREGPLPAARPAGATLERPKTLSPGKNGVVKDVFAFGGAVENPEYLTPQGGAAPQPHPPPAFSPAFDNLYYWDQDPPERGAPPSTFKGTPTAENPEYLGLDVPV

Compound | IC50 [1] [µM] | IC50 [2] [µM] | IC50 [3] [µM] | solubility ([4]; aqueous, read-out: solubility) [µM] | logP [5] | solubility ([4]; buffer) [µM]
Cc1cc(Nc2ccc(OCc3cccc(F)c3)c(Cl)c2)ncn1 | 6.5 | 1.1 |  |  |  | 
Fc1cccc(COc2ccc(Nc3cc(-c4ccccc4)ncn3)cc2Cl)c1 | 6.3 | 1.2 |  |  |  | 
Fc1cccc(COc2ccc(Nc3cc(-c4cccnc4)ncn3)cc2Cl)c1 | > 100 | 47 |  |  |  | 
Fc1cccc(COc2ccc(Nc3cc(-c4ccsc4)ncn3)cc2Cl)c1 | 36 |  |  |  |  | 
Fc1cccc(COc2ccc(Nc3cc(N4CCCC4)ncn3)cc2Cl)c1 | > 100 | > 100 |  |  |  | 
Fc1cccc(COc2ccc(Nc3cc(Oc4ccccc4)ncn3)cc2Cl)c1 | > 100 | 10 |  |  |  | 
CCc1ncnc(Nc2ccc(OCc3cccc(F)c3)c(Cl)c2)c1C | 2.9 | 0.64 |  |  |  | 
Cc1ncnc(Nc2ccc(OCc3cccc(F)c3)c(Cl)c2)c1/C=C(\F)C(=O)NCCS(C)(=O)=O | 0.071 | 0.019 |  |  |  | 
CCN1CCN(CCCC#Cc2c(C)ncnc2Nc2ccc(OCc3cccc(F)c3)c(Cl)c2)CC1 | 0.036 | 0.009 | 1.44 | > 50 | 6.23 | 
Cc1ncnc(Nc2ccc(OCc3cccc(F)c3)c(Cl)c2)c1C#CCCNCc1ccccc1 | 0.81 | 0.27 |  |  |  | 
Fc1cccc(COc2ccc(Nc3ccncn3)cc2Cl)c1 | 25 | 0.92 |  |  |  | 
CS(=O)(=O)CCNCc1ccc(-c2ccc3ncnc(Nc4ccc(OCc5cccc(F)c5)c(Cl)c4)c3c2)o1.Cc1ccc(S(=O)(=O)O)cc1.Cc1ccc(S(=O)(=O)O)cc1.O [LAPATINIB DITOSYLATE] |  |  | 0.1 |  | 6.67 | 24

More lines, now with the values ahead:

IC50 [1] [µM] | IC50 [2] [µM] | IC50 [3] [µM] | solubility ([4]; aqueous, read-out: solubility) [µM] | logP [5] | solubility ([4]; buffer) [µM] | Compound
0.14 | 0.017 |  |  |  |  | Cc1ncnc(Nc2ccc(OCc3cccc(F)c3)c(Cl)c2)c1C
65 | 20 |  |  |  |  | Cc1c(Nc2ccc(OCc3cccc(F)c3)c(Cl)c2)ncnc1-c1ccccc1
0.74 | 0.068 |  |  |  |  | Cc1ncnc(Nc2ccc(OCc3cccc(F)c3)c(Cl)c2)c1/C=N/OCCN1CCOCC1
1.8 | 0.065 |  |  |  |  | Cc1ncnc(Nc2ccc(OCc3cccc(F)c3)c(Cl)c2)c1/C=N/OCCCN1CCOCC1
3.75 | 0.59 |  |  |  |  | Cc1ncnc(Nc2ccc(OCc3cccc(F)c3)c(Cl)c2)c1-c1cccc(CN2CCOCC2)c1
0.15 | 0.034 |  |  |  |  | Cc1ncnc(Nc2ccc(OCc3cccc(F)c3)c(Cl)c2)c1C#CCCCN1CCOCC1
0.44 | 0.24 | 0.394 | > 50 | 6.96 |  | Cc1ncnc(Nc2ccc(OCc3cccc(F)c3)c(Cl)c2)c1C#Cc1ccc(CN2CCOCC2)cc1
0.081 | 0.028 |  |  |  |  | C/C(=C\c1c(C)ncnc1Nc1ccc(OCc2cccc(F)c2)c(Cl)c1)C(=O)NCCN1CCOCC1
0.19 | 0.12 | 0.644 |  | 7.73 |  | Cc1ncnc(Nc2ccc(OCc3cccc(F)c3)c(Cl)c2)c1/C=C/c1ccc(CN2CCOCC2)cc1
0.078 |  |  |  |  |  | Cc1ncnc(Nc2ccc(OCc3cccc(F)c3)c(Cl)c2)c1/C=C(\F)C(=O)NCCN1CCOCC1
0.318 | 0.114 |  |  |  |  | Cc1ncnc(Nc2ccc(OCc3cccc(F)c3)c(Cl)c2)c1/C=C/C(=O)NCCN1CCOCC1
0.019 | 0.003 | 1.13 | > 50 | 5.98 |  | Cc1ncnc(Nc2ccc(OCc3cccc(F)c3)c(Cl)c2)c1/C=C(\F)C(=O)NCCN1CCCC1
0.102 | 0.156 |  |  |  |  | CCN1CCN(C(=O)/C(F)=C/c2c(C)ncnc2Nc2ccc(OCc3cccc(F)c3)c(Cl)c2)CC1
0.074 | 0.013 |  |  |  |  | Cc1ncnc(Nc2ccc(OCc3cccc(F)c3)c(Cl)c2)c1C#CCCN1CCOCC1
5.38 | 4.13 |  |  |  |  | Cc1ncnc(Nc2ccc(OCc3cccc(F)c3)c(Cl)c2)c1C#CCN1CCOCC1
0.07 | 0.038 |  |  |  |  | Cc1ncnc(Nc2ccc(OCc3cccc(F)c3)c(Cl)c2)c1C#C/C=N/OCCN1CCOCC1
0.095 |  |  |  |  |  | Cc1ncnc(Nc2ccc(OCc3cccc(F)c3)c(Cl)c2)c1C#CCCCN1CCCC1
 |  |  | 2 |  |  | Cc1ncnc(Nc2ccc(OCc3cccc(F)c3)c(Cl)c2)c1/C=C/c1ccc(CN2CCOCC2)cc1.Cl

Source: ChEMBL document CHEMBL1681756, “Synthesis and evaluation of novel pyrimidine-based dual EGFR/Her-2 inhibitors” (Bioorg Med Chem Lett, 2011)
